Earlier results in patent US20080274094A1, “Molecular Complex Comprising Arbutine, Ascorbic Acid, Oleuropeina or Its Derivatives Thereof and Related Uses In Medical Field” (MED CARE S.R.L., priority 2005, published 2008).

Tests used:
[1] = tested on: cultured human melanocytes; settings: Pigment Cell Res. 1998; mechanism other than induction of tyrosinase activity
TNF alpha receptors = settings: Biochem Pharmacol 1999, Mancini et al.

effect on TNF alpha receptors (TNF alpha receptors) | Structure (SMILES) | pigmentation of cultured human melanocytes [1]
 | OC[C@H]1O[C@@H](Oc2ccc(O)cc2)[C@H](O)[C@@H](O)[C@@H]1O [Arbutin] | increases the pigmentation
inhibitory effect | Cc1ccc(C(=O)Nc2ccc(S(=O)(=O)O)c3cc(S(=O)(=O)O)cc(S(=O)(=O)O)c23)cc1NC(=O)c1cccc(NC(=O)Nc2cccc(C(=O)Nc3cc(C(=O)Nc4ccc(S(=O)(=O)O)c5cc(S(=O)(=O)O)cc(S(=O)(=O)O)c45)ccc3C)c2)c1 [suramin] | 
